Reference: US12428377B2, “Sodium-hydrogen exchanger 3 inhibitor compounds” (Eli Lilly and Company, priority 2019, dated 2025)

Biological target: T1, NPT2b (Homo sapiens, UniProt O95436)
T1 sequence (O95436 1-690): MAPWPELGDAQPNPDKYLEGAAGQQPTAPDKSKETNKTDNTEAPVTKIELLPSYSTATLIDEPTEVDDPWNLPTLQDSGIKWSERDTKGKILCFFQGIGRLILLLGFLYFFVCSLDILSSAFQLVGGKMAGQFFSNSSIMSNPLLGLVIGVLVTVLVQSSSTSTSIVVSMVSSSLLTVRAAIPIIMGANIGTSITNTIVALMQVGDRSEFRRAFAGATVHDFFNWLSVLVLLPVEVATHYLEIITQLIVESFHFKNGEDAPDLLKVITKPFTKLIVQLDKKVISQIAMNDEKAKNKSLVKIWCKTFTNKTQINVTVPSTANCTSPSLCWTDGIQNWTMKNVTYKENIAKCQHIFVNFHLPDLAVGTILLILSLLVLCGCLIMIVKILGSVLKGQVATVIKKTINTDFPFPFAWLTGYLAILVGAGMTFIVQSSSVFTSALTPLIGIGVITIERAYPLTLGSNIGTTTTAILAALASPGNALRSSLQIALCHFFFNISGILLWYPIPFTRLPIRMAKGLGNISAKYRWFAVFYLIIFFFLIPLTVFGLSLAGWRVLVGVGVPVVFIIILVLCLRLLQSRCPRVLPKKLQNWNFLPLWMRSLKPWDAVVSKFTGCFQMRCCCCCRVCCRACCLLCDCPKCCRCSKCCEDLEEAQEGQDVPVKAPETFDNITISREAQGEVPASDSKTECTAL
Experiment: NPT2b inhibition (selectivity)

IC50: 58.4 µM
Structure (SMILES): CN1Cc2c(Cl)cc(Cl)cc2[C@H](c2cccc(S(=O)(=O)NCCOCCOCCN/C(=N\C(N)=O)NCCCCN/C(=N/C(N)=O)NCCOCCOCCNS(=O)(=O)c3cccc([C@@H]4CN(C)Cc5c(Cl)cc(Cl)cc54)c3)c2)C1.Cl.Cl [Example 2, [[4-[[N′-Carbamoyl-N-[2-[2-[2-[[3-[(4S)-6,8-dichloro-2-methyl-3,4-dihydro-1H-isoquinolin-4-yl]phenyl]sulfonylamino]ethoxy]ethoxy]ethyl]carbamimidoyl]amino]butylamino]-[2-[2-[2-[[3-[(4S)-6,8-dichloro-2-methyl-3,4-dihydro-1H-isoquinolin-4-yl]phenyl]sulfonylamino]ethoxy]ethoxy]ethylamino]methylene]urea dihydrochloride]
